In US4632928A, “Pyrazole derivatives with an ergoline skeleton, their acid addition salts, and a process for the preparation thereof” (Richter Gedeon Vegyeszeti Gyar R.T., priority 1983, dated 1986):
Counter-ions that a name gives are not always drawn. Like-named read-outs stand apart in the source and are kept apart here.

Key:
[1] = Acute toxicity in CFLP mice (Probite analysis according to Litchfield-Wilcoxon); settings: mouse, in vivo
From the text: Acute toxicity of pyrazole derivatives of
general formula (I) in CFLP mice
Method: Probite analysis according to Litchfield-
Wilcoxon [J. Pharm. Exp. Ther. 96, 99 (1949)]

PGF2alpha receptor [2] = assay: In vivo PGF2alpha antagonist effect in urethane anesthesized rabbits; settings: PGF2alpha 6.25 μg/kg iv; for Duration of the effect: rabbits; for Inhibition: urethane anesthesized rabbits
From the text: (§1) In vitro, in the isolated rat uterus (Table 1), and in vivo in rabbits under urethane anesthesis (Table 2) they antagonize the uterine contraction inducing activity of PGF2alpha. The competitive antagonist effect of the compounds is selective and protracted, while it fails to influence the uterine contraction inducing effect of other endogeneous compounds, i.e. oxytocin. This would enable their use as spasmolytic agents of new mechanism of action in the field of obstetrics and gynecology for the treatment of dysmenorrhea and anovulation, and the prevention of imminent and habitual abortus and miscarriage.
In vivo PGF2alpha antagonist effect of pyrazole deriva-
tives of general formula (I) in urethane (1.2 g/kg iv)
1. D. F. Hawkins: Agents Acting on the Uterus.
In: Evaluation of Drug Activities: Pharma-
cometrics. Edited by R. Lawrence and A. L.
Bacharach. Academic Press, London, p. 680 (1964)
2. A. R. Cushny: J. Physiol. 35, 1 (1906)
PGF2alpha standard dose: 6.25 μg/kg iv

PGF2alpha receptor [3] = biological target: T1, PGF2alpha receptor (Rattus norvegicus, UniProt P43118); assay: PGF2alpha antagonist effect in vitro in isolated rat uterus; settings: compound 2 × 10^-6 M, PGF2alpha 1.4 × 10^-7 M, read-out: Percentual inhibition at concentrations of 2 × 10^-6 M against 1.4 × 10^-7 M PGF2alpha
T1 construct: in the isolated rat uterus; from tissue; host or cells: isolated rat uterus
T1 sequence (P43118 whole entry): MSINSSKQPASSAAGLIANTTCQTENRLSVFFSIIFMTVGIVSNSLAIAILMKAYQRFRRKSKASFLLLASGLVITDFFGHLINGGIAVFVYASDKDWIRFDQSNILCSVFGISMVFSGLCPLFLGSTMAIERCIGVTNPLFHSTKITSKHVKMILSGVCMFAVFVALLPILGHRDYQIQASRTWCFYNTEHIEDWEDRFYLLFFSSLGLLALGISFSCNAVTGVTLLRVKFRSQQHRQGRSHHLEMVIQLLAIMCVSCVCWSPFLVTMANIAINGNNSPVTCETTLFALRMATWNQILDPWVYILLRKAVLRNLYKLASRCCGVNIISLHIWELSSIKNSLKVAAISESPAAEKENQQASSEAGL
From the text: as §1
PGF2alpha antagonist effect of the compounds of general
formula (I) in vitro in isolated rat uterus
Method: 1. J. H. Gaddum and K. A. Hammed:
2. O. Arunlakshana and H. O Schild:
Compound Percentual inhibition at concentrations

uterine musculature = settings: known compounds with ergoline skeleton; cited from earlier work

| Molecule | LD50 ([1]; ip, read-out: LD50 ip) [mg/kg] | LD50 ([1]; po, read-out: LD50 po) [mg/kg] | inhibition at 2 µM (PGF2alpha receptor [3]) [%] | further results |
| --- | --- | --- | --- | --- |
| Cc1nn(C[C@@H]2C=C3c4cccc5[nH]cc(c45)C[C@H]3N(C)C2)c2c1CCC2 [Example 1, 8-beta-[3(5)-Methyl-cyclopentano/4,5(3,4)/pyrazol-1-yl-methylene]-6-methyl-ergol-9-ene] | 3100 | 2450 | 70 | Duration of the effect (PGF2alpha receptor [2]; 0.3 mg/kg intraduodenal): > 180 min; Inhibition (PGF2alpha receptor [2]; 0.3 mg/kg intraduodenal): 38%; Duration of the effect (PGF2alpha receptor [2]; 1.0 mg/kg intraduodenal): > 180 min; Inhibition (PGF2alpha receptor [2]; 1.0 mg/kg intraduodenal): 49% |
| Cc1nn(C[C@@H]2C=C3c4cccc5c4c(cn5C)C[C@H]3N(C)C2)c2c1CCC2 [Example 2, 8-beta-[3(5)-Methyl-cyclopentane/4,5(3,4)/pyrazol-1-yl-methylene]-1,6-dimethyl-ergol-9-ene hydrogen maleinate] | > 100 | > 100 | 58 |  |
| Cc1nn(C[C@@H]2C[C@@H]3c4cccc5[nH]cc(c45)C[C@H]3N(C)C2)c2c1CCC2 [Example 4, 8-beta-[3(5)-Methyl-cyclopentano/4,5(3,4)/pyrazol-1-yl-methylene]-6-methyl-ergoline] | > 100 | > 100 |  |  |
| CN1C[C@H](Cn2nc(-c3cccnc3)c3c2CCC3)C=C2c3cccc4[nH]cc(c34)C[C@H]21 [Example 5, 8-beta-[3(5)-(3-Pyridyl)-cyclopentano/4,5(3,4)/pyrazol-1-yl-methylene]-6-methyl-ergol-9-ene] | > 100 | > 100 | 46 |  |
| Cc1nn(C[C@@H]2C=C3c4cccc5[nH]cc(c45)C[C@H]3N(C)C2)c2c1C(=O)CC2 [Example 6, 8-beta-[3(6)-Methyl-4(5)-oxo-cyclopentano/4,5(3,4)/pyrazol-1-yl-methylene]-6-methyl-ergol-9-ene] | > 200 | 1000 |  |  |
| Cc1nn(C[C@@H]2C=C3c4cccc5[nH]cc(c45)C[C@H]3N(C)C2)c2c1C(O)CC2 (stereo partly drawn) [Example 7, 8-beta-[3(6)-Methyl-4(5)-hydroxy-cyclopentano/4,5(3,4)/pyrazol-1-yl-methylene]-6-methyl-ergol-9-ene] | > 100 | > 100 |  |  |
| Cc1nn(C[C@@H]2C=C3c4cccc5[nH]cc(c45)C[C@H]3N(C)C2)c2c1C(=NO)CC2 [Example 8, 8-beta-[3(6)-Methyl-4(5)-hydroxy-imino-cyclopentano/4,5(3,4)/pyrazol-1-yl-methylene]-6-methyl-ergol-9-ene] | > 100 | > 100 |  |  |
| Cc1nn(C[C@@H]2C=C3c4cccc5[nH]cc(c45)C[C@H]3N(C)C2)c2c1CCCC2 [Example 9, 8-beta-[3(5)-Methyl-cyclohexano/4,5(3,4)/pyrazol-1-yl-methylene]-6-methyl-ergol-9-ene] | > 100 | > 100 | 40 | Duration of the effect (PGF2alpha receptor [2]; 3.0 mg/kg intraduodenal): > 180 min; Inhibition (PGF2alpha receptor [2]; 3.0 mg/kg intraduodenal): 58%; Duration of the effect (PGF2alpha receptor [2]; 10.0 mg/kg intraduodenal): > 180 min; Inhibition (PGF2alpha receptor [2]; 10.0 mg/kg intraduodenal): 68% |
| Cc1nn(C[C@@H]2C=C3c4cccc5[nH]cc(c45)C[C@H]3N(C)C2)c2c1C(=O)CC(C)(C)C2 [Example 10] | > 100 | > 100 | 66 | Duration of the effect (PGF2alpha receptor [2]; 20.0 mg/kg intraduodenal): 90 min; Inhibition (PGF2alpha receptor [2]; 20.0 mg/kg intraduodenal): 42% |
| Cc1nn(C[C@@H]2C=C3c4cccc5[nH]cc(c45)C[C@H]3N(C)C2)c2c1C(=NO)CC(C)(C)C2 [Example 11, 8-beta-[3(7),6(4)-Trimethyl-4(6)-hydroxy-imino-cyclohexano/4,5(3,4)/pyrazol-1-yl-methylene]-6-methyl-ergol-9-ene] | > 100 | > 100 | 80 | Duration of the effect (PGF2alpha receptor [2]; 20.0 mg/kg intraduodenal): > 120 min; Inhibition (PGF2alpha receptor [2]; 20.0 mg/kg intraduodenal): 72% |
| C=CCc1c(C)nn(C[C@@H]2C=C3c4cccc5[nH]cc(c45)C[C@H]3N(C)C2)c1C [Example 14, 8-beta-(3,5-Dimethyl-4-allyl-pyrazol-1-yl-methylene)-6-methyl-ergol-9-ene] | > 100 | > 100 | 77 |  |
| CCOC(=O)c1nn(C[C@@H]2C=C3c4cccc5[nH]cc(c45)C[C@H]3N(C)C2)c(O)c1C [Example 15, 8-beta-(3-Carbethoxy-4-methyl-5-hydroxy-pyrazol-1-yl-methylene)-6-methyl-ergol-9-ene] | > 100 | > 100 | 40 |  |
| Cc1cc(-c2ccccn2)nn1C[C@@H]1C=C2c3cccc4[nH]cc(c34)C[C@H]2N(C)C1 [Example 16, 8-beta-[3(5)-/2-Pyridyl/-5(3)-methyl-pyrazol-1-yl-methylene]-6-methyl-ergol-9-ene] | > 100 | > 100 | 18 |  |
| Cc1cc(-c2ccccn2)nn1C[C@@H]1C[C@@H]2c3cccc4[nH]cc(c34)C[C@H]2N(C)C1 [Example 17, 8-beta-[3(5)-/2-Pyridyl/-5(3)-methyl-pyrazol-1-yl-methylene]-6-methyl-ergoline] | > 100 | > 100 | 44 | Duration of the effect (PGF2alpha receptor [2]; 10.0 mg/kg intraduodenal): 120 min; Inhibition (PGF2alpha receptor [2]; 10.0 mg/kg intraduodenal): 55%; Duration of the effect (PGF2alpha receptor [2]; 20.0 mg/kg intraduodenal): > 150 min; Inhibition (PGF2alpha receptor [2]; 20.0 mg/kg intraduodenal): 77% |
| CC(=O)c1c(C)nn(C[C@@H]2C=C3c4cccc5[nH]cc(c45)C[C@H]3N(C)C2)c1C [Example 18, 8-beta-[3,5-Dimethyl-4-(1-oxo-ethyl)-pyrazol-1-yl-methylene]-6-methyl-ergol-9-ene] | > 100 | > 100 |  |  |
| Cc1nn(C[C@@H]2C=C3c4cccc5[nH]cc(c45)C[C@H]3N(C)C2)c2c1CCC2 [Hydrogen-fumarate of 1, 8-beta-[3(5)-methyl-cyclopentano/4,5(3,4)/pyrazol-1-yl-methylene]-6-methyl-ergol-9-ene hydrogen fumarate] |  |  |  | Duration of the effect (PGF2alpha receptor [2]; 3.0 mg/kg intraduodenal): > 180 min; Inhibition (PGF2alpha receptor [2]; 3.0 mg/kg intraduodenal): 63% |
| CC(C)C[C@H]1C(=O)N2CCC[C@H]2[C@]2(O)O[C@](NC(=O)[C@@H]3C=C4c5cccc6[nH]c(Br)c(c56)C[C@H]4N(C)C3)(C(C)C)C(=O)N12 [bromocryptine] |  |  |  | effect on the uterine musculature (uterine musculature): uterine relaxants |
| CN1C[C@H](C(=O)N[C@]2(C)O[C@@]3(O)[C@@H]4CCCN4C(=O)[C@H](Cc4ccccc4)N3C2=O)C[C@@H]2c3cccc4[nH]cc(c34)C[C@H]21 [dihydroergotamine] |  |  |  | effect on the uterine musculature (uterine musculature): uterine relaxants |
| C[C@@H](CO)NC(=O)[C@@H]1C=C2c3cccc4[nH]cc(c34)C[C@H]2N(C)C1 [ergometrin] |  |  |  | effect on the uterine musculature (uterine musculature): inducing uterine contraction |
| CN1C[C@H](C(=O)N[C@]2(C)O[C@@]3(O)[C@@H]4CCCN4C(=O)[C@H](Cc4ccccc4)N3C2=O)C=C2c3cccc4[nH]cc(c34)C[C@H]21 [ergotamine] |  |  |  | effect on the uterine musculature (uterine musculature): inducing uterine contraction |
| CC[C@@H](CO)NC(=O)[C@@H]1C=C2c3cccc4[nH]cc(c34)C[C@H]2N(C)C1 [methylergometrin] |  |  |  | effect on the uterine musculature (uterine musculature): inducing uterine contraction |
| hydergine |  |  |  | effect on the uterine musculature (uterine musculature): uterine relaxants |
